Series [1] is described as follows: Contact angles by tilting plane method (sessile drop on tilted surface). The class given is physicochemical. To be noted: sessile drop of water or buffered aqueous medium (50 mM sodium phosphate, pH 6.8) on tilted surface of the substance. The text has this:
The tilting plane method of measuring contact angles involves slowly tilting a surface or plane of a substance the contact angle of which is to be determined until a sessile drop on the plane begins to move in the downhill direction. At that time the angle between the plane and the downhill tangent of the drop at the plane is the advancing contact angle, and the angle between the plane and the uphill tangent of the drop at the plane is the receding contact angle. A procedure for determining the contact angles of a therapeutic component is as follows. A small batch of Compound III weighing approximately 30 g is micronized in a ball mill for three days using 5-mm stainless steel balls. The resulting particles have an average diameter of 8 μm. A 200-mg sample of the micronized Compound III is compressed into a wafer 12 mm in diameter and 2 mm thick using a Carver press. The wafer is then glued on to a plastic board. Separately, a 10 milliliter aqueous solution is prepared containing 50 mM sodium phosphate buffer at pH 6.8. A drop of a blue food dye is added to the solution to aid visualization. A 40 μL drop of the blue aqueous solution is placed on top of the Compound III wafer on a plastic board resting at a horizontal position. The plastic board and the wafer are then slowly tilted from their horizontal position in front of a continuous shooting camera. The process stops after the blue aqueous drop has run down the wafer. The images that show the shapes of the liquid drop just prior to it starting to run down the wafer are analyzed and the contact angles measured. Alternatively, both the advancing and receding contact angles can be measured using a KSV instrument (model CAM 200) with a tilt stage. The instrument is fully computer controlled, and it captures the video image and performs full analysis of the advancing and receding contact angles.

The nature of series [2]: Solubility in water at 25° C. The series is classed as physicochemical. To be noted: for solubility: water; for solubility in water: unit given as mg.
Series [3] is described as follows: Dissolution in aqueous solution buffered to pH 6.8 over time (FIG. 1, FIG. 2). To be noted: 100 mg sample with excipients in buffer pH 6.8, FIG. 1 curves. The series is classed as physicochemical. The procedure: Samples A and B are in the form of particles having an average diameter of about 150 microns. Samples C and D are in the form of particles having an average diameter of about 10 microns.
An aqueous solution buffered with a buffer to a pH of 6.8 is provided. A quantity of a mixture containing conventional pharmaceutically acceptable excipients is provided. In addition, a quantity of sodium dodecyl sulfate is provided.
A mixture of Sample A (100 mg) and excipients is formed and is placed in 900 ml of the aqueous solution.
A mixture of Sample C (100 mg) and excipients is formed and is placed in another 900 ml of the aqueous solution. Test samples of each of the aqueous solutions are taken at various times after each of the mixtures containing Compound III (Samples A and C) is placed in the aqueous solution. Each of these test samples is analyzed for Compound III concentration. Using these test results over a period of 240 minutes, relationships between the percentage of Sample A and Sample C dissolved and time are developed. These tests are run a total of 3 times (n=3).
Each of Samples B and D is tested in a substantially similar way. However, when testing Samples B and […], 1% based on weight of the mixture of Sample and excipient mixture, of sodium dodecyl sulfate is included in the mixture. Each of these tests is run a total of 3 times. […]

For series [4] the following is noted: at doses 10-fold greater than the dose required to produce a 50% reduction in one or more symptoms; cited from earlier work.

We go through 5 compounds from patent US20090252802A1, “Compositions Including Relatively Water Insoluble/Unwettable Drugs And Methods For Using Same” (priority 2006, published 2009).

Where only a bound is given, the exact number is not on record here.

As usually defined, the solubility is the dissolved amount per volume that the medium holds. A higher solubility goes with much dissolved substance. For the compound `S=c1[nH]cc(CC2CC=CC2)[nH]1` [Compound III], in series [1], the advancing contact angle turned out to be 116 ° and the receding contact angle came out at 73 °. Moreover, in series [2], the solubility is under 500 µg/mL. For the same compound, in series [3], the “rate of dissolution (comparison in words)” value was “relatively reduced rate of dissolution in water”.

Turning to `O=c1[nH]cc(CC2Cc3ccc(F)cc3C2)[nH]1` (centres unmarked) [Compound II], in series [1], the advancing contact angle result is recorded as “greater than 90 °” and the receding contact angle result was “greater than 45 °”. In series [2], the solubility in water entry is listed as “less than 0.5 mg”.

For the compound `Cc1cccc([C@@H](C)c2c[nH]c(=S)[nH]2)c1C` [Compound IV], in series [1], the advancing contact angle entry is reported as “greater than 90 °” and the receding contact angle result is recorded as “greater than 45 °”. Also, in series [2], the solubility in water result is “less than 0.5 mg”.

As for `O=C1c2ccccc2CCC1Cc1c[nH]c(=S)[nH]1` (centres unmarked) [Compound I], in series [1], the advancing contact angle entry is “greater than 90 °” and the receding contact angle entry is on record as “greater than 45 °”. For the same compound, in series [2], the solubility is under 500 µg/mL.

In the case of `Cc1cccc([C@H](C)c2c[nH]cn2)c1C` [dexmeditomidine], the sedation result in series [4] is “completely sedating”.
